ChEMBL document CHEMBL5247656, “Discovery of a Potent, Cooperative, and Selective SOS1 PROTAC ZZ151 with In Vivo Antitumor Efficacy in KRAS-Mutant Cancers” (J Med Chem, 2023)
Calls of active or inactive are those of the source. The rule behind the calls is not given here.

Tests used:
[1] = target: von Hippel-Lindau disease tumor suppressor/Son of sevenless homolog 1 (Homo sapiens, UniProt P40337+Q07889); assay: PROTAC activity at VHL/SOS1 in human NCI-H358 cells assessed as induction of SOS1 protein degradation incubated for 24 hrs by Immunoblot analysis; assay type: cell-based
[2] = target: von Hippel-Lindau disease tumor suppressor/Son of sevenless homolog 1/Elongin-B/Elongin-C (Homo sapiens) (UniProt Q07889+P40337+Q15370+Q15369); assay: Binding affinity to GST tagged human SOS1(564 to 1049 residues)-6his tagged human VHL (54 to 213 residues)-human ElonginC (17 to 112 residues)-human ElonginB (1 to 104 residues) expressed in Escherichia coli BL21 (DE3) cells assessed as ternary complex formation by measuring maximal HTRF signals incubated for 15 mins by HTRF analysis
[3] = target: T1, von Hippel-Lindau disease tumor suppressor/Son of sevenless homolog 1 (Homo sapiens) (UniProt Q07889+P40337); assay: PROTAC activity at VHL/SOS1 in human ASPC1 cells harboring KRAS G12D mutant assessed as induction of SOS1 degradation at 1 uM preincubated with (R)-1-(4-(4-((1-(3-amino-5-(trifluoromethyl)phenyl)ethyl)amino)-7-methoxy-2-methylquinazolin-6-yl)piperidin-1-yl)ethanone for 4 hrs followed by compound treatment and measured after 24 hrs by immunoblot analysis; assay type: cell-based
[4] = target: von Hippel-Lindau disease tumor suppressor/Son of sevenless homolog 1 (Homo sapiens, UniProt P40337+Q07889, G12C); assay: PROTAC activity at VHL/SOS1 in human MIA PaCa-2 cells harboring KRAS G12C mutant assessed as induction of SOS1 degradation incubated for 24 hrs by Immunoblot analysis; assay type: cell-based; conditions: pooled result: one value given for 16 cell lines, strains, targets or settings
[5] = target: T1, von Hippel-Lindau disease tumor suppressor/Son of sevenless homolog 1 (Homo sapiens); assay: PROTAC activity at VHL/SOS1 in human MIA PaCa-2 cells harboring KRAS G12C mutant assessed as induction of SOS1 degradation by measuring maximal efficacy at 1 to 2000 nM incubated for 24 hrs by Immunoblot analysis relative to control; assay type: cell-based; conditions: dose 1-2000 nM
[6] = target: T1, von Hippel-Lindau disease tumor suppressor/Son of sevenless homolog 1 (Homo sapiens); assay: PROTAC activity at VHL/SOS1 in human NCI-H441 cells harboring KRAS G12V mutant assessed as induction of SOS1 degradation by measuring maximal efficacy at 1 to 2000 nM incubated for 24 hrs by Immunoblot analysis relative to control; assay type: cell-based; conditions: dose 1-2000 nM
[7] = target: T1, von Hippel-Lindau disease tumor suppressor/Son of sevenless homolog 1 (Homo sapiens); assay: PROTAC activity at VHL/SOS1 in human NCI-H460 cells harboring KRAS Q61H mutant assessed as induction of SOS1 degradation by measuring maximal efficacy at 1 to 2000 nM incubated for 24 hrs by Immunoblot analysis relative to control; assay type: cell-based; conditions: dose 1-2000 nM
NCI-H460 = assay: Antiproliferative activity against human NCI-H460 cells harboring KRAS […] mutant assessed as inhibition of cell proliferation incubated for 7 days by CellTiterGlo-3D proliferation assay; assay type: functional, cell-based; conditions: time 7.0 day
[8] = target: T2, Son of sevenless homolog 1 (Homo sapiens) (UniProt Q07889); assay: Induction of SOS1 degradation in human ASPC1 cells at 1 uM incubated for 6 hrs by quantitative proteomics analysis; assay type: cell-based
T2 sequence (whole entry): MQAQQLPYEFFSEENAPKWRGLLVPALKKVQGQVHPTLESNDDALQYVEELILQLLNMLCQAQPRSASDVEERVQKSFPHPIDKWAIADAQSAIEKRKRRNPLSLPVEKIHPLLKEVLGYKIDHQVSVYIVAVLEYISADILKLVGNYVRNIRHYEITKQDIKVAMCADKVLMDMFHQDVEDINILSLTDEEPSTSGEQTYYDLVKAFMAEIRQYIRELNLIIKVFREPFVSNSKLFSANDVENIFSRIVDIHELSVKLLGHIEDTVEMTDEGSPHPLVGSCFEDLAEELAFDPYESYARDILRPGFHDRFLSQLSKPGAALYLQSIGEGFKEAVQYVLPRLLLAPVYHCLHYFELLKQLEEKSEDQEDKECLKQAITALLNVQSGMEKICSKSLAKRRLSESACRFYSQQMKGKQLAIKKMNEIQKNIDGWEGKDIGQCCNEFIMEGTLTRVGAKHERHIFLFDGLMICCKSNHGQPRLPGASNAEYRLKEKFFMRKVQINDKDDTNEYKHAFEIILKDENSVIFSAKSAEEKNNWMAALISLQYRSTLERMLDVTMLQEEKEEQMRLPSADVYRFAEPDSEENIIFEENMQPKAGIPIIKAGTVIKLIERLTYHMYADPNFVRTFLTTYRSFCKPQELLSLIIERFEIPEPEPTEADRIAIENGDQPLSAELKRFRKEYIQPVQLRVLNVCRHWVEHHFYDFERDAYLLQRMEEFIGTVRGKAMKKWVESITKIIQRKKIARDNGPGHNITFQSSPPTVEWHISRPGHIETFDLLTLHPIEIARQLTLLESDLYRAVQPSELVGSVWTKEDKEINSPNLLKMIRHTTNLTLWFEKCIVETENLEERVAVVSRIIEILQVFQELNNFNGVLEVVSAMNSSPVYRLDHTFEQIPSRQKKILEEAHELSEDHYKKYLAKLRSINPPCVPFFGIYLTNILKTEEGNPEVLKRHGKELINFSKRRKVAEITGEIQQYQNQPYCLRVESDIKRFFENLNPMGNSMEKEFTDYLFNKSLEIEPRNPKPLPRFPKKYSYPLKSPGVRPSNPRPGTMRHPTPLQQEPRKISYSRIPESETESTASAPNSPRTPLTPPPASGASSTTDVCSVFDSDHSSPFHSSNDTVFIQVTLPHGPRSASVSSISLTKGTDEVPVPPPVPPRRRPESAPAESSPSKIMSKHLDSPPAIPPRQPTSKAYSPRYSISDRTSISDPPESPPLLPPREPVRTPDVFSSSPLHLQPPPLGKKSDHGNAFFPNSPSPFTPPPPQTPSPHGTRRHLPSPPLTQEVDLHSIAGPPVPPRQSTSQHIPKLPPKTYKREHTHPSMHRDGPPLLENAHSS

ASPC1 [9] = assay: Downregulation of ALKBH4 in human ASPC1 cells at 1 uM incubated for 6 hrs by quantitative proteomics analysis; assay type: functional, cell-based
ASPC1 [10] = assay: Antitumor activity against human ASPC1 cells harboring KRAS G12D mutant xenografted in BALB/c nude mouse assessed as tumor growth inhibition at 10 mg/kg, ip administered once daily for 3 weeks relative to control; assay type: functional; conditions: ASPC1, 504 h, read-out: TGI
SW-620 = assay: Antitumor activity against human SW620 cells harboring KRAS G12V mutant xenografted in BALB/c nude mouse assessed as tumor growth inhibition at 10 mg/kg, ip administered once daily for 2 weeks relative to control; assay type: functional; conditions: SW-620, 336 h, read-out: TGI
[11] = target: T1, von Hippel-Lindau disease tumor suppressor/Son of sevenless homolog 1 (Homo sapiens); assay: In vivo PROTAC activity at VHL/SOS1 in human ASPC1 cells harboring KRAS G12D mutant xenografted BALB/c nude mouse assessed as induction of SOS1 degradation administered intraperitoneally once daily for 3 weeks by Immunoblot analysis; assay type: functional; conditions: dose 10-20 mg/kg, route ip
[12] = target: T1, von Hippel-Lindau disease tumor suppressor/Son of sevenless homolog 1 (Homo sapiens); assay: In vivo PROTAC activity at VHL/SOS1 in human SW620 cells harboring KRAS G12V mutant xenografted BALB/c nude mouse assessed as decrease in phosphorylated ERK expression at 10 to 20 mg/kg, ip administered once daily for 2 weeks by Immunoblot analysis; assay type: functional, organism-based; conditions: SW-620, dose 10-20 mg/kg

For `COc1cc2nc(C)nc(N[C@H](C)c3cc(N)cc(C(F)(F)F)c3)c2cc1C1CCN(C(=O)CCCCCC(=O)N[C@H](C(=O)N2C[C@H](O)C[C@H]2C(=O)N[C@@H](C)c2ccc(-c3scnc3C)cc2)C(C)(C)C)CC1`, the EC50 [1] was 15.7 nM, the Activity [2] was “Active” and the Activity [3] was “inactive”. The EC50 [4] was 8.41 nM, the Emax [5] was > 95% and the Emax [6] was > 95%. The Emax [7] was > 95%, the inhibition (NCI-H460) was “inactive” and the Activity [8] was “Active”. The Activity (ASPC1 [9]) was “Active”, the inhibition in vivo at 10 mg/kg (ASPC1 [10]) was 38.8% and the inhibition in vivo at 10 mg/kg (SW-620) was 46.5%. For the same compound, the Activity [11] was “Dose-Dependent Effect” and the Activity [12] was “Active”.
